The structures appear in SMILES notation. Where two headings read alike, the source gives them in different places.

Series [1] deals with T1, hTRPC5 (Homo sapiens, UniProt Q9UL62).
T1 construct: expressed in transfected cells; host or cells: HEK-293
T1 sequence (Q9UL62 1-973): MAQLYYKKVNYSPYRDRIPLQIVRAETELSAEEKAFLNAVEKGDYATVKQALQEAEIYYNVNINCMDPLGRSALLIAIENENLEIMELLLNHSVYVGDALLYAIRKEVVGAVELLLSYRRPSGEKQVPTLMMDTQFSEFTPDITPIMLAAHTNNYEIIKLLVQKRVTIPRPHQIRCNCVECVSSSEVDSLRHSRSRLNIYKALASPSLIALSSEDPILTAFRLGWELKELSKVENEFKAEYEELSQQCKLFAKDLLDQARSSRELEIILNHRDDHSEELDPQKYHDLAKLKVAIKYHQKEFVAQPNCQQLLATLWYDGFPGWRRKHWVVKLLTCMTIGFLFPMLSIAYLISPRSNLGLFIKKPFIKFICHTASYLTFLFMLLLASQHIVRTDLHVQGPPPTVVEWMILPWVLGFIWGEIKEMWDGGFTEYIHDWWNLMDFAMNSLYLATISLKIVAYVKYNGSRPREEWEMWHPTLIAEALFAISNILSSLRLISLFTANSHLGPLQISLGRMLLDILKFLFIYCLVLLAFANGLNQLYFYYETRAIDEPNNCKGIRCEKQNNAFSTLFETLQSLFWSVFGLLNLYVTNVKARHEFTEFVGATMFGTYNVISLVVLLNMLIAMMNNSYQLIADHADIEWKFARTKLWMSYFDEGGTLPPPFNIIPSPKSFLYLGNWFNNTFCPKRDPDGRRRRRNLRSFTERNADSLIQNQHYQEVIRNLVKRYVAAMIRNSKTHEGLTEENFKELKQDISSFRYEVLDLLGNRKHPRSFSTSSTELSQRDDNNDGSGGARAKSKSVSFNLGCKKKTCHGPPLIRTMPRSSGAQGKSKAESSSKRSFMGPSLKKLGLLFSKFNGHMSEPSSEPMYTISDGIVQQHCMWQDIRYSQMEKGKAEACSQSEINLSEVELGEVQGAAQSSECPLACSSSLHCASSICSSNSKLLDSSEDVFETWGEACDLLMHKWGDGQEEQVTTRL
Description: TRPC5 agonist activity assay (FLIPR calcium fluorescence). It counts as cell-based. The conditions noted are these: Table 2, agonist activity on TRPC5 channels. Here is the method:
HEK-293 cells expressing hTRPC5 were seeded into PDL-coated black-walled 96-well plates, with 2×10^4 cells per well. After 8 hours of culture, the original culture medium was discarded, and 60 µL of 4 µM Fluo-4/AM dye was added immediately. The cells were incubated at 37 °C for 60 minutes, and then rinsed with calcium flow detection buffer 5 times. The cell plates were placed in FLIPR®TETRA (Molecular Devices, Sunnyvale, CA, USA) preheated at 30 °C, excited at a wavelength of 488 nm, and the fluorescence signals were continuously recorded in the range of 515-535 nm with a sampling frequency of 1 s. After recording for 360 seconds, solvent control and test compounds were added, and the fluorescence signal was collected for another 600 seconds. The fluorescence signal of the trajectory diagram is represented by F/F0, wherein F is the fluorescence signal at different time points, and F0 is the basic fluorescence signal, that is, the average value of the fluorescence signal at the first 10 time points. The dose-effect diagram first took F/F0 =1 as the baseline. The area under the curve of the change in fluorescence intensity after adding test compound was calculated. IC50 value was calculated using log[agonist] vs. response - Variable slope, taking into account the area under the curve and the log value of the concentration of the compound.

For series [2], the target named is T1, hTRPC5. Description: TRPC5 inhibitory activity assay (FLIPR calcium fluorescence, Englerin A stimulation). It is filed as cell-based. The protocol: HEK-293 cells expressing hTRPC3, hTRPC4 or hTRPC5 were seeded into black-bottomed 96-well plates coated with poly-lysine (PDL), with 2×10^4 cells per well. After 8 h of culture, the original culture medium was discarded, and 60 µL of Fluo-4/AM dye with a final concentration of 4 µM was added. The plates were incubated at 37 °C for 60 min, and then rinsed five times with calcium flow detection buffer. […] Then, the agonist Englerin A (EA) (MedChemExpress, Shanghai, China, final concentration of 0.3nM) was added, and the fluorescence signal was collected for 600 seconds. The fluorescence signal of the trajectory diagram is represented by F/F0, wherein F is the fluorescence signal at different time points, and F0 is the basic fluorescence signal, that is, the average value of the fluorescence signal at the first 10 time points. […] The area under the curve of the change in fluorescence intensity after adding EA was calculated. IC50 value was calculated using log[Inhibitor] vs. response - Variable slope, taking into account the area under the curve and the log value of the concentration of the compound.

Series [3] addresses T2, hERG channel (Homo sapiens, UniProt Q12809).
T2 construct: expressed in transfected cells; host or cells: CHO
Description: hERG channel inhibition assay (Qpatch whole-cell recording, CHO cells expressing hERG). It is filed as cell-based. The conditions noted are these: Table 3; highest test concentration 40 µM; read-out: inhibitory activity IC50 hERG. Here is the method:
(§1) CHO cells expressing hERG protein were cultured in 175cm^2 culture flasks. When the cell density grew to 60-80%, the culture medium was removed, and the cells were washed with 7mL PBS, and then 3mL Detachin was added for digestion. After digestion was complete, 7mL culture medium was added for neutralization, and then centrifuged, the supernatant was aspirated, and 5mL culture medium was added for resuspending to ensure that the cell density was 2-5×10^6/mL.
(§2) The single-cell high-impedance sealing and whole-cell pattern formation process were all automatically completed by the Qpatch instrument. After obtaining the whole-cell recording mode, the cell was clamped at -80 mV. […] This voltage stimulus was applied every 15 seconds. After recording for 2 minutes, the extracellular solution was recorded for 2 minutes, and then the drug administration process began. The compound concentration started from the lowest test concentration, and each test concentration was given for 2 minutes. After all concentrations were given continuously, the positive control compound 10 µM Cisapride was given. At least 3 cells (n≥3) were tested for each concentration.
(§3) The stock solution of compound was diluted with extracellular solution, 5 µL of 20 mM compound stock solution was added to 2495 µL of extracellular solution, 500 times diluted to 40 µM, and then 3 times serial dilution was performed in the extracellular solution containing 0.2% DMSO to obtain the final concentration to be tested.
(§4) (5) Data analysis: The experimental data were analyzed by XLFit software.
(In general: hERG is a cardiac potassium channel; its block is linked to QT prolongation.)

Series [4] addresses T3, hERG channel (relative to TRPC5) (Homo sapiens, UniProt Q12809).
T3 construct: expressed in transfected cells; host or cells: CHO
The series is described as above. It is filed as cell-based. The conditions noted are these: human, CHO cells expressing hERG; ratio of IC50 values. The protocol:
as §1, §2, §3, §4

The nature of series [5]: Preliminary pharmacokinetic evaluation, plasma drug concentration after oral administration to mice. The conditions noted are these: oral 10 mg/kg, Mean ± SD, N = 3. It counts as in vivo, ICR mice. The protocol:
The test compound was prepared according to the following solvent: an aqueous solution of DMSO/Tween 80/0.5% (m/v) CMC-Na at a ratio of 2:2:96 (v/v/v), with a drug concentration of 1 mg/mL. Then, the test compound was gavaged to mice at a dosage of 10 mL/kg, with a dose of 10 mg/kg. Each compound was administered to 3 mice. At 1h and 4h after administration, about 50 µL of blood was collected from the orbital venous plexus of the mouse and placed in a centrifuge tube containing EDTA-K2 anticoagulant.

Series [6] in a line: Liver microsome stability test, mouse. The conditions noted are these: Mouse liver microsomes. It counts as in vitro ADME. An excerpt: Calculation of Intrinsic Clearance: Clint = (1000 × slope)/(P); [formula]
Background: Liver microsomes are a subcellular fraction often used to study metabolism.

In series [7] the test system is mice. In words: Marble burial test (antianxiety). It counts as in vivo. To be noted: before versus after administration (Figure 3). The protocol: (§5) The drug to be tested was dissolved in DMSO: Tween 80: distilled water at a ratio of 2:2:96 (v/v/v), and then administered to mice by gavage at a volume of 10 mL/kg. […] The blank control group was only given 10 mL/kg of the above solvent.
The mouse marble burial test is a behavioral assay used for the screening of antianxiety drugs. It exploits the natural digging behavior of mice in environments such as burrows or escape tunnels and is sensitive to small changes in behavior caused by genetic manipulation, disease, or drug treatment.
A 5cm thick sawdust litter was laid in a 33 cm×24 cm×28 cm carton, and 4×5 black marbles (4 cm apart) with a total of 20 black marbles of 14mm in diameter were neatly placed on the litter. The mouse was put into the carton facing the corner for 30 minutes. After 30 minutes, the mouse was carefully taken out and the number of marbles buried by the mouse was counted. If more than 2/3 of the marble was buried, it was considered a whole marble. First, a blank experiment was conducted. Before the experiment, the mouse was taken to the experimental environment to adapt. After 1 hour, the experiment began. After the experiment, the mouse was returned to the cage and the number of marbles buried by the mouse was counted. On the second day, the mouse was taken to the experimental environment to adapt for 1 hour before the drug was administered. After the drug administration, the marble burying experiment was conducted for […]. After the experiment, the mouse was carefully taken out and returned to the cage to prevent the mouse from escaping violently and affecting the experimental results. After counting, the black marbles were taken out and wiped with alcohol, and the litter was turned over again to remove the smell of the previous mouse to prevent it from affecting the experiment of the next mouse. The marbles were neatly placed for the experiment of the next mouse.

For series [8], the system named is mice. Description: Tail suspension test (antidepression). It is filed as in vivo. To be noted: before versus after administration (Figure 4). The protocol: as §5
The mouse tail suspension test (TST) is a widely used experimental method to evaluate the effectiveness of antidepressants and other psychotropic drugs. The principle of the test is to suspend a mouse by its tail and observe its behavior. The mouse will initially struggle to escape, but when it realizes that escape is impossible, it will eventually stop struggling and enter a state of immobility that indicates despair. This immobility behavior is used to measure depression-like states, and the severity of the condition is assessed by recording the duration of immobility.
The same mouse was subjected to the tail suspension test immediately after the marble burying test. A tail suspension test box was built using a black frosted acrylic board, 55 cm high, 15 cm long, and 11.5 cm wide. The three sides and top of the box were frosted blackboards, and one side was used for video recording. The mouse tail was wrapped with yellow tape 2 cm away from the tip of the tail, and the mouse was hung upside down in the middle of the top acrylic board. The tip of the mouse tail was about 3 cm away from the acrylic board, and the body was suspended and could not touch the surrounding board wall. The test time for each mouse lasted for 6 minutes, and the immobility time of the mouse during this time was counted. After the experiment, the mouse was returned to the cage, and the inside of the box and the table were wiped with alcohol to remove the smell of the previous mouse to prevent affecting the next mouse experiment. The criteria for immobility in the tail suspension test: stop struggling, no flexion or twisting of the body, no swinging of the hind limbs, and slight swinging of the forelimbs and head were also counted as immobility time.

T2 sequence (Q12809 whole entry): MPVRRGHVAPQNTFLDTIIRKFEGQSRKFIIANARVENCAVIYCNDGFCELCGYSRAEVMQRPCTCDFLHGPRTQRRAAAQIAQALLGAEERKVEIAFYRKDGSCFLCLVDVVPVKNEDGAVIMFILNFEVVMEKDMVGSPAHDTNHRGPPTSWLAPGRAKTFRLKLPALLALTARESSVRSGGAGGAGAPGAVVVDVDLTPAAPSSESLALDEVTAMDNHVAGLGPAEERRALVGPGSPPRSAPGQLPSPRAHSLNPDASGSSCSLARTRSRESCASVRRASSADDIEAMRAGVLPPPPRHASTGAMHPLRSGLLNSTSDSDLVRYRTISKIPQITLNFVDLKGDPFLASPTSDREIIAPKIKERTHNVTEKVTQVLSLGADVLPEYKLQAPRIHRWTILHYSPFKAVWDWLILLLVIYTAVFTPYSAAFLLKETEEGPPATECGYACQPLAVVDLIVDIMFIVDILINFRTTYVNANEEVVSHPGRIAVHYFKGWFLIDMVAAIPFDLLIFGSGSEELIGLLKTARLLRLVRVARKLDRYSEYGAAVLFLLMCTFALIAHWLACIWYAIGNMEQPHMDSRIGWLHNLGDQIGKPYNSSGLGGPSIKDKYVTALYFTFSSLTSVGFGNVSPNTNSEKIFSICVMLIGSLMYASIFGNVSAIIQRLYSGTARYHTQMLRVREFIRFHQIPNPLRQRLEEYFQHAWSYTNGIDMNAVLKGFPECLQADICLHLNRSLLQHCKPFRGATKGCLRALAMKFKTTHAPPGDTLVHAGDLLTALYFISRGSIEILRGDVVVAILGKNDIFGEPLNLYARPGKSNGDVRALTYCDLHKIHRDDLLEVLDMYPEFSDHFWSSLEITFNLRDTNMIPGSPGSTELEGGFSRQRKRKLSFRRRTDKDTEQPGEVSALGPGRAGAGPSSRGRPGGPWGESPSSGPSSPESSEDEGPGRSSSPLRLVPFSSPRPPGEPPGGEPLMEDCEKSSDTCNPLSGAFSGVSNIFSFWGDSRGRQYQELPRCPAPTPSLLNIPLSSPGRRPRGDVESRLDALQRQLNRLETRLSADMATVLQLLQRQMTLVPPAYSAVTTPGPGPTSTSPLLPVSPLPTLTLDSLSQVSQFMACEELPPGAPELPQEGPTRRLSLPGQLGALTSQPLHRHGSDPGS
T3 sequence (Q12809 whole entry): as above

By EC50 is commonly meant the concentration giving half of the maximal effect. Take `CC(C)C1CCC(F)(c2nc3c(c(=O)n(CCCO)c(=O)n3C)n2Cc2ccc(Cl)cc2)CC1` (stereo not shown) [Example E31, 7-(4-chlorobenzyl)-8-(1-fluoro-4-isopropylcyclohexyl)-1-(3-hydroxypropyl)-3-methyl-3,7-dihydro-1H-purine-2,6-dione]: the EC50 in series [1] is 102 nM.

With `Cn1c(=O)n(CCCO)c(=O)c2c1nc(C1(F)CCC(N3CCCC3)CC1)n2Cc1ccc(Cl)cc1` (stereo not shown) [Example E55, 7-(4-chlorobenzyl)-8-(1-fluoro-4-(pyrrolidin-1-yl)cyclohexyl)-1-(3-hydroxypropyl)-3-methyl-3,7-dihydro-1H-purine-2,6-dione], the EC50 in series [1] stood at 700 nM.

A word on the IC50: it is the concentration at which inhibition is half-maximal. Turning to `Cn1c(=O)n(CCCO)c(=O)c2c1nc(C1(F)CCC(F)(F)CC1)n2Cc1ccc(C(F)(F)F)cc1` [Example E60, 1-(3-hydroxypropyl)-3-methyl-8-(1,4,4-trifluorocyclohexyl)-7-(4-(trifluoromethyl)benzyl)-3,7-dihydro-1H-purine-2,6-dione], the IC50 was 6.87 nM in series [2] (Table 1, TRPC5 channels, HEK-293 cells expressing hTRPC5, read-out: FLIPR IC50); 6.9 nM in series [2] (Table 3, read-out: inhibitory activity IC50 TRPC5); 13300 nM in series [3]. In addition, the selectivity ratio at 2 min in series [4] stood at 1940. For the same compound, the concentration at 1 h in series [5] (male, ICR, mouse, 1h) came out at 1310 ± 45 ng/mL. This compound had a concentration at 4 h in series [5] (male, ICR, mouse, 4h) of 1180 ± 163 ng/mL.

`Cn1c(=O)n(CCCO)c(=O)c2c1nc(Oc1cccc(Cl)c1)n2Cc1ccc(Cl)cc1` [HC-070, reference compound]: in series [6], the “Stability Evaluation” value is “Worse (MF%<30%, worse metabolic stability)”. Moreover, in series [6] (metabolic bioavailability), the MF % was 19.8%. In addition, in series [6] (pH 7.4, 1µM compound, read-out: Half-life T1/2), the half-life amounted to 11.7 min. In addition, the “drug concentration 1h” value in series [5] (1h) is on record as 802 ± 164 ng/mL. In addition, the “drug concentration 4h” value in series [5] (4h) came out at 398 ± 57 ng/mL. The “number of marbles buried by mice” value in series [7] (oral 1 mg/kg) is listed as “significantly reduced”. Further, the “immobility time of mice” value in series [8] (oral 1 mg/kg) is recorded as “significantly reduced”.

In the case of `Cn1c(=O)n(CCCO)c(=O)c2c1cc(C1CCC(c3ccccc3)CC1)n2Cc1ccc(Cl)cc1` (stereo not shown) [Example E5, 5-(4-chlorobenzyl)-3-(3-hydroxypropyl)-1-methyl-6-(4-phenylcyclohexyl)-1,5-dihydro-2H-pyrrolo[3,2-d]pyrimidine-2,4(3H)-dione], in series [1], the EC50 came to 141 nM.

Turning to `COC1(c2nc3c(c(=O)n(CCCO)c(=O)n3C)n2Cc2ccc(Cl)cc2)CCC(C)(C)CC1` [Example E26, 7-(4-chlorobenzyl)-1-(3-hydroxypropyl)-8-(1-methoxy-4,4-dimethylcyclohexyl)-3-methyl-3,7-dihydro-1H-purine-2,6-dione], in series [1], the EC50 lay in the range of 100 to 200 nM.

On to `CNCCC(Oc1ccc(C(F)(F)F)cc1)c1ccccc1` (stereo not shown) [Fluoxetine, reference compound], for which the “number of marbles buried by mice” value in series [7] (oral 10 mg/kg) is “significantly reduced”. In addition, in series [8] (oral 10 mg/kg), the “immobility time of mice” value is listed as “significantly reduced”.

Values taken from EP4663640A1 (Shanghai Institute of Materia Medica, Chinese Academy of …, priority 2023, dated 2024).
